This is an account of results in article PMC8404221 (European journal of pharmaceutical sciences : official …, 2021).

Read-outs that look alike come from different tables or passages of the source.

For series [1], the target named is T1, DYRK1A (Homo sapiens, UniProt Q13627). Kind of series: biochemical. It counts as binding. As to conditions: for IC50: DYRK1A IC50, TR-FRET. For orientation: In TR-FRET formats the signal depends on donor and acceptor labels being close together.
The target in series [2] is T1, DYRK1A. Kind of series: biochemical. It counts as biochemical.
The target of series [3] is T2, Monoamine oxidase-A (MAO-A) (Homo sapiens, UniProt P21397).
T2 sequence (P21397 1-527): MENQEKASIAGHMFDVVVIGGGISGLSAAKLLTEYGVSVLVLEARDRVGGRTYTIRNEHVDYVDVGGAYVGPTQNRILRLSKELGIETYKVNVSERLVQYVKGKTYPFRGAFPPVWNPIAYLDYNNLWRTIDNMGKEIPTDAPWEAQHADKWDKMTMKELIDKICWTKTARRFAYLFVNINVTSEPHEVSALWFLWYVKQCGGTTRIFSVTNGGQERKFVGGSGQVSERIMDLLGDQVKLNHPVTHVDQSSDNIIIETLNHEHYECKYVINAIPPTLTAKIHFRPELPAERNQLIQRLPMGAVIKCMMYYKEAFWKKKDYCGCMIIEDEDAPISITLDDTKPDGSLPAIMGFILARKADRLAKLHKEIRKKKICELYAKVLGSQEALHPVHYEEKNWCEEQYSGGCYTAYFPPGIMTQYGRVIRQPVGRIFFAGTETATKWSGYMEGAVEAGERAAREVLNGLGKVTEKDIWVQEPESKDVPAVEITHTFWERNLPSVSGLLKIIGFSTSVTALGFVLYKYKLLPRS
Kind of series: biochemical. It counts as biochemical.

Series [4] deals with H4 cells. Kind of series: PrestoBlue cell proliferation/viability assay. It counts as cell-based, human. The settings on record: Homo sapiens, 72 h, read-out: H4 (cell proliferation) IC50.
The test system of series [5] is U87 cells. Kind of series: PrestoBlue cell proliferation/viability assay. It counts as cell-based, human. As to conditions: Homo sapiens, U-87 MG, 72 h, read-out: U87 (cell proliferation) IC50.
In series [6] the test system is H4 cells. Kind of series: High content imaging assay. It counts as cell-based, human. The settings on record: Homo sapiens, 72 h, read-out: H4 (nuclear count) IC50.
In series [7] the test system is U87 cells. Kind of series: High content imaging assay. It counts as cell-based, human. As to conditions: Homo sapiens, U-87 MG, 72 h, read-out: U87 (nuclear count) IC50.
Another series has as its target CLK1 (Homo sapiens, UniProt P49759). Kind of series: InCELL Hunter / PathHunter in-cell target engagement assay. It counts as cell-based. The settings on record: 0.5, 5 and 50 μM.
Series [8] deals with U87 human glioblastoma cells. Kind of series: U87 glioma tumor xenograft in nude NU/J mice. The settings on record: for Effect on body weight: up to 21 days. It counts as in vivo.
In series [9] the target is T1, DYRK1A. As to conditions: read-out: DYRK1A IC50, published values, ref Adayev et al., 2011, Bain et al., 2007, Bálint et al., 2017, Bruel et al., 2014, Foucourt et al., Göckler et al., 2009, Grabher et al., 2012, Kim et al., 2016, Kumar et al., 2018, Liu et al., 2017b, PubChem; cited from earlier work.
For the next series, the system named is MAO-A. The settings on record: read-out: MAO-A IC50, published, ref Bálint et al., 2017, Clarke and Ramsay, 2011, Herraiz and Brandt, 2014, Herraiz and Chaparro, 2005, Ionescu et al., 2012, Kim et al., 1997, Rahman and Rahmatullah, 2010, Reniers et al., Rommelspacher et al., 1994, Rüben et al., 2015, Santillo et al., Wurzlbauer et al., 2020; cited from earlier work.

For another series, the system named is panel of 10 kinases. Kind of series: Kinase selectivity panel. As to conditions: 10 μM.

Chain of CLK1 (P49759 whole entry): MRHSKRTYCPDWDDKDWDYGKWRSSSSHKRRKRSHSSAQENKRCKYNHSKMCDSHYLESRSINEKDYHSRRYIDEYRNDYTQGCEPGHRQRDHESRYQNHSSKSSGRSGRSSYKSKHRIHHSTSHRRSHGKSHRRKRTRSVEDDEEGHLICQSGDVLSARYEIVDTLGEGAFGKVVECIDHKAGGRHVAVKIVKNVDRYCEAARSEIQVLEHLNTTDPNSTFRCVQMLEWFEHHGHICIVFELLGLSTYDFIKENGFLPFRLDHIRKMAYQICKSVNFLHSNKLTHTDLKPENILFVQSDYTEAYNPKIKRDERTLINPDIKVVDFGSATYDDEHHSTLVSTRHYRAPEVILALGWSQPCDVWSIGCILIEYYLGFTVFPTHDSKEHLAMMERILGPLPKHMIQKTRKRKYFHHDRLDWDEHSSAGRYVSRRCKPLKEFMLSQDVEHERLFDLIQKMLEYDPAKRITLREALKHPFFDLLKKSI

As to `Cc1[nH]ccc2c1[nH]c1cc(=O)ccc12` [Harmol, harmol], the IC50 against DYRK1A [1] (10-point 2-fold dose response) was 100 nM; on DYRK1A [1] (dose response), 70 to 100 nM; against DYRK1A [2], 16 nM; in [3] (MAO-A IC50, MAO-A Glo), 500 nM; in the series on H4 cells [4] it was 10900 nM; with U87 cells [5], 19100 nM. Further, the IC50 was 20000 nM in the series with H4 cells [6], 20800 nM with U87 cells [7], 44 to 298 nM on DYRK1A [9] and 530 nM with MAO-A. For the same compound, the inhibition (as a rule, the relative decrease from the control value, in per cent) at 6.7 µM on DYRK1A [1] (read-out: DYRK1A inhibition in pilot HTS) worked out at 78%. Further, at DYRK1A [2] (DYRK1A), the “Fold more potent IC50 with 33P-ATP assay versus TR-FRET” value was 6–7 fold. Moreover, the “Fold weaker than harmine for MAO-A” value in series [3] amounted to 10 fold. Further, the “DYRK1A:MAO-A (IC50 ratio)” value in [3] (using TR-FRET DYRK1A IC50 values) was 0.2. Further, on CLK1, the “Effect on β-gal activity (CLK1 target engagement)” value is listed as “increase in β-gal activity”. Further, the Tumor inhibition rate in series [8] (15 mg/kg i.p. q.d.) is on record as 28.2%; in series [8] (60 mg/kg i.p. q.d.), 38.1%. The “Effect on body weight” value in series [8] (15 mg/kg i.p. q.d.) and in [8] (60 mg/kg i.p. q.d.) was “did not lead to significant differences in body weight” throughout. For the same compound, in [8] (60 mg/kg i.p. q.d., not statistically significant), the “Survival (Kaplan-Meier) compared to vehicle” value is recorded as “trend towards improved survival”. Further, in series [8] (anecdotal observation, duration of the study), the “Tremor activity in treated mice” value is “no tremor activity”. Also, the Tumor growth entry in series [8] (high dose (60 mg/kg), day 21, not reaching significance) is given as “modest decrease in tumor growth”. Further, the “Number of the 10 kinases displaying 50% or greater inhibition” value with panel of 10 kinases is recorded as 7.
